Measured values taken from publication PMC3539793 (Neuroscience letters, 2012).
Non-standard residues stand in square brackets, D forms with d. Residues, ends and D or L forms follow the SMILES beside them. *: point of attachment. X1 = OC[C@H]1O[C@@H](O[C@H]2[C@H](O)[C@@H](O)[C@H](*)O[C@@H]2CO)[C@H](O)[C@@H](O)[C@H]1O

Columns and labels:
[1] = type: in vivo, rat
[2] = system: apomorphine-induced overshoot in movement; details: reserpine-treated akinesia rats; cited from earlier work
[3] = system: δ-opioid receptor; details: cited from earlier work
[4] = system: μ-opioid receptor; details: cited from earlier work
[5] = rhesus monkeys; i.m. injection; cited from earlier work
[6] = system: allodynia; details: rhesus monkeys; i.m.; cited from earlier work
[7] = system: thermal nociception; details: rhesus monkeys; i.m.; cited from earlier work

CC(C)C[C@H](NC(=O)[C@H](Cc1ccccc1)NC(=O)CNC(=O)[C@H](NC(=O)[C@@H](N)Cc1ccc(O)cc1)[C@H](C)O)C(=O)N[C@@H](CO[C@@H]1O[C@H](CO)[C@@H](O[C@@H]2O[C@H](CO)[C@H](O)[C@H](O)[C@H]2O)[C@H](O)[C@H]1O)C(N)=O [MMP-2200, Tyr-D-Thr-Gly-Phe-Leu-Ser(β-O-Glc)-CONH2] (H-Y[dT]GFLS(X1)-NH2; N-terminus assumed)
MMP-2200 concentration in DLS reached within 10 minutes ([1]; rat, systemic administration (i.p.), highlights): nM range
effect of MMP-2200 injection on endogenous leu-ENK level in DLS ([1]; rats, MMP-2200 10 mg/kg i.p., 80 min, repeated measures ANOVA p = 0.8, n = 5): unchanged
apomorphine-induced overshoot in movement [2]: reversed
affinity for δ-opioid receptor [3]: nanomolar
affinity for μ-opioid receptor [4]: nanomolar
CNS distribution [5]: very limited
anti-allodynic effects [6]: comparable to morphine
effect in tail flick model of thermal nociception [7]: not very effective
